Results taken from patent US10750743B2, “Pyridazinone herbicides” (E.I. DU PONT DE NEMOURS AND COMPANY, priority 2015, dated 2020).

How the values were obtained:
Format in all cases: in vivo
[1] = tested on: barnyardgrass (Echinochloa crus-galli); experiment: Test A preemergence, directed soil spray, visual injury rating; conditions: 0 is no effect, 100 is complete control
Procedure, shortened: (§1)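 Seeds sown in a loam soil–sand blend received a directed preemergence soil spray of test chemical in a non-phytotoxic solvent mixture with surfactant. Postemergence plants were sprayed at 2 to 10 cm, one- to two-leaf stage. After approximately 10 d in greenhouse, injury was visually rated 0 (no effect) to 100 (complete control) against untreated controls.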

[2] = tested on: foxtail, giant (giant foxtail, Setaria faberii); experiment: as above; conditions: 0 is no effect, 100 is complete control
Procedure, shortened: as §1

[3] = tested on: kochia (Kochia scoparia); experiment: as above; conditions: 0 is no effect, 100 is complete control
Procedure, shortened: as §1

[4] = tested on: pigweed (Amaranthus retroflexus); experiment: as above; conditions: 0 is no effect, 100 is complete control
Procedure, shortened: as §1

[5] = tested on: ragweed (common ragweed, Ambrosia elatior); experiment: as above; conditions: 0 is no effect, 100 is complete control
Procedure, shortened: as §1

[6] = tested on: ryegrass, It. (Italian ryegrass, Lolium multiflorum); experiment: as above; conditions: 0 is no effect, 100 is complete control
Procedure, shortened: as §1

[7] = tested on: barnyardgrass (Echinochloa crus-galli); experiment: Test B flooded paddy test, visual rating; conditions: Flood, 250 g ai/ha, applied to paddy water, rated after 13 to 15 d
Procedure, shortened: (§2)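 Plants at the 2-leaf stage were flooded to 3 cm above soil, and test compounds were applied directly into the paddy water, which was held at that depth throughout. After 13 to 15 d in a greenhouse, injury was rated visually against untreated controls on a 0–100 scale (0 no effect, 100 complete control).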

[8] = tested on: ducksalad (Heteranthera limosa); experiment: Test B flooded paddy test, visual rating; conditions: Flood, 250 g ai/ha, applied to paddy water, rated after 13 to 15 d
Procedure, shortened: as §2

[9] = tested on: rice (Oryza sativa); experiment: Test B flooded paddy test, visual rating; conditions: Flood, 250 g ai/ha, applied to paddy water, rated after 13 to 15 d
Procedure, shortened: as §2

[10] = tested on: sedge, umbrella (small-flower umbrella sedge, Cyperus difformis); experiment: Test B flooded paddy test, visual rating; conditions: Flood, 250 g ai/ha, applied to paddy water, rated after 13 to 15 d
Procedure, shortened: as §2

[11] = tested on: barnyardgrass (Echinochloa crus-galli); experiment: Test A postemergence application, visual injury rating; conditions: 0 to 100 scale, 0 no effect, 100 complete control
Procedure, shortened: as §1

[12] = tested on: blackgrass (Alopecurus myosuroides); experiment: as above; conditions: 0 to 100 scale, 0 no effect, 100 complete control
Procedure, shortened: as §1

[13] = tested on: corn (Zea mays); experiment: as above; conditions: 0 to 100 scale, 0 no effect, 100 complete control
Procedure, shortened: as §1

[14] = tested on: foxtail, giant (giant foxtail, Setaria faberii); experiment: as above; conditions: 0 to 100 scale, 0 no effect, 100 complete control
Procedure, shortened: as §1

[15] = tested on: galium (catchweed bedstraw, Galium aparine); experiment: as above; conditions: 0 to 100 scale, 0 no effect, 100 complete control
Procedure, shortened: as §1

[16] = tested on: kochia (Kochia scoparia); experiment: as above; conditions: 0 to 100 scale, 0 no effect, 100 complete control
Procedure, shortened: as §1

[17] = tested on: pigweed (Amaranthus retroflexus); experiment: as above; conditions: 0 to 100 scale, 0 no effect, 100 complete control
Procedure, shortened: as §1

[18] = tested on: ragweed (common ragweed, Ambrosia elatior); experiment: as above; conditions: 0 to 100 scale, 0 no effect, 100 complete control
Procedure, shortened: as §1

[19] = tested on: ryegrass, It. (Italian ryegrass, Lolium multiflorum); experiment: as above; conditions: 0 to 100 scale, 0 no effect, 100 complete control
Procedure, shortened: as §1

[20] = tested on: wheat (Triticum aestivum); experiment: as above; conditions: 0 to 100 scale, 0 no effect, 100 complete control
Procedure, shortened: as §1

| SMILES | Plant response rating (0 to 100 scale), Barnyardgrass ([1]; 125 g ai/ha) | Plant response rating (0 to 100 scale), Barnyardgrass ([1]; 500 g ai/ha) | Plant response rating (0 to 100 scale), Foxtail, Giant ([2]; 125 g ai/ha) | Plant response rating (0 to 100 scale), Foxtail, Giant ([2]; 500 g ai/ha) | Plant response rating (0 to 100 scale), Kochia ([3]; 125 g ai/ha) | Plant response rating (0 to 100 scale), Kochia ([3]; 500 g ai/ha) | Plant response rating (0 to 100 scale), Pigweed ([4]; 125 g ai/ha) | Plant response rating (0 to 100 scale), Pigweed ([4]; 500 g ai/ha) | Plant response rating (0 to 100 scale), Ragweed ([5]; 125 g ai/ha) | Plant response rating (0 to 100 scale), Ragweed ([5]; 500 g ai/ha) | Plant response rating (0 to 100 scale), Ryegrass, It. ([6]; 125 g ai/ha) | Plant response rating (0 to 100 scale), Ryegrass, It. ([6]; 500 g ai/ha) | Barnyardgrass plant response rating (0 to 100 scale, 0 is no effect, 100 is complete control) [7] | Ducksalad plant response rating (0 to 100 scale, 0 is no effect, 100 is complete control) [8] | Rice plant response rating (0 to 100 scale, 0 is no effect, 100 is complete control) [9] | Sedge, Umbrella plant response rating (0 to 100 scale, 0 is no effect, 100 is complete control) [10] | Barnyardgrass plant response rating ([11]; 125 g ai/ha) | Barnyardgrass plant response rating ([11]; 500 g ai/ha) | Blackgrass plant response rating ([12]; 125 g ai/ha) | Blackgrass plant response rating ([12]; 500 g ai/ha) | also measured |
| --- | --- | --- | --- | --- | --- | --- | --- | --- | --- | --- | --- | --- | --- | --- | --- | --- | --- | --- | --- | --- | --- |
| Cc1nn(C)c(=O)c(-c2cccc3scnc23)c1O [Compound 1] | 0 | 20 | 0 | 20 | 0 | 0 | 0 | 0 | 0 | 20 | 0 | 70 | 0 | 0 | 0 | 0 | 0 | 0 | 0 | 10 | Corn plant response rating ([13]; 125 g ai/ha): 0; Corn plant response rating ([13]; 500 g ai/ha): 0; Foxtail, Giant plant response rating ([14]; 125 g ai/ha): 0; Foxtail, Giant plant response rating ([14]; 500 g ai/ha): 0; Galium plant response rating ([15]; 125 g ai/ha): 0; Galium plant response rating ([15]; 500 g ai/ha): 30; Kochia plant response rating ([16]; 125 g ai/ha): 0; Kochia plant response rating ([16]; 500 g ai/ha): 0; Pigweed plant response rating ([17]; 125 g ai/ha): 0; Pigweed plant response rating ([17]; 500 g ai/ha): 10; Ragweed plant response rating ([18]; 125 g ai/ha): 0; Ragweed plant response rating ([18]; 500 g ai/ha): 10; Ryegrass, It. plant response rating ([19]; 125 g ai/ha): 0; Ryegrass, It. plant response rating ([19]; 500 g ai/ha): 40; Wheat plant response rating ([20]; 125 g ai/ha): 0; Wheat plant response rating ([20]; 500 g ai/ha): 0 |
| CCOC(=O)Oc1c(C)nn(C)c(=O)c1-c1c(C)sc2ncccc12 [Compound 24] | 0 | 0 | 0 | 0 | 0 | 0 | 0 | 0 | 0 | 0 | 10 | 20 | 0 | 0 | 0 | 0 | 0 | 0 | 0 | 0 | Corn plant response rating ([13]; 125 g ai/ha): 0; Corn plant response rating ([13]; 500 g ai/ha): 10; Foxtail, Giant plant response rating ([14]; 125 g ai/ha): 0; Foxtail, Giant plant response rating ([14]; 500 g ai/ha): 0; Galium plant response rating ([15]; 125 g ai/ha): 0; Galium plant response rating ([15]; 500 g ai/ha): 0; Kochia plant response rating ([16]; 125 g ai/ha): 0; Kochia plant response rating ([16]; 500 g ai/ha): 0; Pigweed plant response rating ([17]; 125 g ai/ha): 0; Pigweed plant response rating ([17]; 500 g ai/ha): 10; Ragweed plant response rating ([18]; 125 g ai/ha): 0; Ragweed plant response rating ([18]; 500 g ai/ha): 0; Ryegrass, It. plant response rating ([19]; 125 g ai/ha): 0; Ryegrass, It. plant response rating ([19]; 500 g ai/ha): 20; Wheat plant response rating ([20]; 125 g ai/ha): 0; Wheat plant response rating ([20]; 500 g ai/ha): 0 |
| CCc1sc2ncccc2c1-c1c(OC(=O)OC(C)C)c(C)nn(C)c1=O [Compound 20] | 0 | 0 | 0 | 0 | 0 | 0 | 0 | 40 | 0 | 0 | 0 | 0 | 0 | 0 | 0 | 0 | 0 | 0 | 0 | 0 | Corn plant response rating ([13]; 125 g ai/ha): 0; Corn plant response rating ([13]; 500 g ai/ha): 0; Foxtail, Giant plant response rating ([14]; 125 g ai/ha): 0; Foxtail, Giant plant response rating ([14]; 500 g ai/ha): 0; Galium plant response rating ([15]; 125 g ai/ha): 10; Galium plant response rating ([15]; 500 g ai/ha): 40; Kochia plant response rating ([16]; 125 g ai/ha): 0; Kochia plant response rating ([16]; 500 g ai/ha): 0; Pigweed plant response rating ([17]; 125 g ai/ha): 20; Pigweed plant response rating ([17]; 500 g ai/ha): 50; Ragweed plant response rating ([18]; 125 g ai/ha): 0; Ragweed plant response rating ([18]; 500 g ai/ha): 0; Ryegrass, It. plant response rating ([19]; 125 g ai/ha): 0; Ryegrass, It. plant response rating ([19]; 500 g ai/ha): 0; Wheat plant response rating ([20]; 125 g ai/ha): 0; Wheat plant response rating ([20]; 500 g ai/ha): 0 |
